The values that follow are results of earlier work, collected in PMC4918035, “A human and animal model-based approach to investigating the anti-inflammatory profile and potential of the 5-HT2B receptor antagonist AM1030” (Journal of Inflammation (London, England), 2016).

As usually defined, the Ki is a dissociation constant, usually derived from enzyme kinetics or from competition with a known ligand.

This series concerns the target T1, 5-HT2B receptor (Homo sapiens, UniProt P41595).
T1 construct: gene HTR2B
In words: receptor binding (Ki) and functional inhibition (IC50 […]); assay details not described.

T1 sequence (P41595 whole entry): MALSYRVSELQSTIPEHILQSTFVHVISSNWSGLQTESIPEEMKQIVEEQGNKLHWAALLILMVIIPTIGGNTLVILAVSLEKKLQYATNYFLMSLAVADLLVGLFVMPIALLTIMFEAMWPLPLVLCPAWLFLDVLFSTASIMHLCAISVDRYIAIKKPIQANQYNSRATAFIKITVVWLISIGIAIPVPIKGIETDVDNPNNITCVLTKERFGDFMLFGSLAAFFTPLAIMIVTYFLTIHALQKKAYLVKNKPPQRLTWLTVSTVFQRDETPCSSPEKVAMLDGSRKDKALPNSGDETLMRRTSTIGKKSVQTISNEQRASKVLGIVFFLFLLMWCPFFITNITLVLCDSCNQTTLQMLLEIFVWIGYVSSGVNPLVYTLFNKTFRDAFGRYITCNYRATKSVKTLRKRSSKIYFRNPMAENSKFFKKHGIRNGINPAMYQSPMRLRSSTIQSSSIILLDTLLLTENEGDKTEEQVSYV

Regarding AM1030, the inhibitory constant (Ki) is 330 nM.
